Test [1] has as its target T1, human GPCR sphingosine 1-phosphate receptor 1 (Homo sapiens, UniProt P21453).
T1 construct: host or cells: CHO
Nature of the test: S1PR1 selectivity Ca2+ flux assay (antagonist readout). Type of test: cell-based. To be noted: antagonist readout, CHO cells overexpressing human S1PR1 and Gq, S1P at EC80 (6 nM); read-out: S1P1 EC50 (nM), S1P1 antagonist EC50. In a few lines: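 Antagonist mode: S1P challenge follows 15 min compound preincubation at 37 °C. Cells are CHO stably expressing human S1PR1, serum-starved 1 h (0.1% FAF BSA), loaded with Fluo 8. Peak-over-baseline fluorescence ratio is normalized to positive/negative controls; IC50 from logistic curve fit.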

Test [2] relates to bleomycin induced pulmonary fibrosis in mice. Nature of the test: Therapeutic bleomycin induced pulmonary fibrosis 21-day mice model. It counts as in vivo. To be noted: 10 mg/kg BID. The method, then: The aim of the study is to test the efficacy of a test compound at three different doses in a 21-day model of bleomycin induced pulmonary fibrosis in mice.
This study is carried out on C57BL/6N male mice, supplied by Charles River, Italy, which are acclimatized for at least 5 days in an environment maintained at 22° C., at 55% relative humidity, with 15-20 air changes per h under light cycles of 12 h. Mice pelleted food and water are provided ad libitum.
The solvent for the test solutions is prepared by adding 0.5 g of hydroxyethylcellulose (Natrosol) into 500 mL Aqua distillate (0.1%) under continuous stirring without heating for 5 h on a magnetic stirrer.
Fresh Nintedanib formulation is prepared daily in 0.1% Natrosol formulations to a final concentration of 5 mg/mL. Before dosing, animals are weighed and the Nintedanib amount administered is adjusted accordingly to individual weights corresponding to 10 mL/kg body weight, once daily p.o.,
Finally, test compound solutions are prepared by dissolving the suitable amount of said test compound in PEG 400 (20% of the final volume) then MC 0.5% (80% of the final volume) to reach final concentrations of 1 mg/mL, 0.3 mg/mL and 0.1 mg/mL, thus yielding compound for a doses of 10 mg/kg, 3 mg/kg and 1 mg/kg. […]
(§1) Pulmonary histological changes are assessed using Matsuse modification of Ashcroft score (Ashcroft et al., 1988; Matsuse et al., 1999). […]

In test [3] the test system is HFL-1 cells. Nature of the test: IL-8 production assay (S1P induced IL-8). It counts as cell-based. To be noted: Homo sapiens, HFL1; S1P (1 μM) induced IL-8 in HFL-1 cells, starvation medium without HSA; read-out: IL8 EC50. In a few lines: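 HFL-1 fibroblasts in low-serum medium were pretreated 1 h with a 10-point 1/3 series of compound starting at 30 μM (0.3% DMSO).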

Test [4] has as its system HFL-1 cells. Put plainly: IL8 assay in the presence of Human Serum Albumin. To be noted: HFL1, read-out: HSA IL8 EC50.
For test [5], the system named is bleomycin induced pulmonary fibrosis in mice. Put plainly: Prophylactic bleomycin induced pulmonary fibrosis 14-day mice model. Type of test: in vivo. To be noted: 10 mg/kg BID. Here is the method: The aim of the study is totest the efficacy of atest compound at three different doses ina 14-day model of bleomycin induced pulmonary fibrosis in mice.
This study is carried out on […] male mice, supplied by Charles River, Italy, which are acclimatized for at least 5 days in an environment maintained at 22° C., at 55% relative humidity, with 15-20 air changes per h under light cycles of 12 h. Mice pelleted food and water are provided ad libitum.
The solvent for the test solutions is prepared by adding 0.5 g of hydroxyethylcellulose (Natrosol) into 500 mL Aqua distillate (0.1%) under continuous stirring without heating for 5 h on a magnetic stirrer. Anesthetic solution is prepared by adding 1 mL of Narketan (Narketan 10, Vetoquinol, Bern, Switzerland, 03605877535982) and 0.5 mL of Rompun (Rompun, 2%. Bayer, Leverkusen, Germany) into 9 mL saline. The resulting solution is administered at 10 mL/kg.
Prior to i.n administration, mice are anesthetized i.p. with the anesthetic solution described above.
Fresh pirfenidone formulation is prepared daily in 0.1% Natrosol formulations to a final concentration of 5 mg/mL. […]
as §1

In another test the target is T2, S1PR2 (Homo sapiens, UniProt O95136).
T2 construct: expressed in transfected cells
T2 sequence (O95136 whole entry): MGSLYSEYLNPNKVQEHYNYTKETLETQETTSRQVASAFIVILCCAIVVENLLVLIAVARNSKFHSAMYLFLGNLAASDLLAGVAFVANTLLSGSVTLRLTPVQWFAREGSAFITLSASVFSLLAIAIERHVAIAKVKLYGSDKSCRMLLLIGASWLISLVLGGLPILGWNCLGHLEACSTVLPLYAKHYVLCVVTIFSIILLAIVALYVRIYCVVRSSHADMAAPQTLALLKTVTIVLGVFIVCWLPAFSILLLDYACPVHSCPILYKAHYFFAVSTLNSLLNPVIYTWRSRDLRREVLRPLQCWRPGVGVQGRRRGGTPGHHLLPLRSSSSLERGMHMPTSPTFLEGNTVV
Nature of the test: S1PR2 binding assay (competition with radioactively labeled S1P, SpA). To be noted: membranes from stable cell line over expressing S1PR2, SpA beads; read-out: S1P2 EC50 (nM), S1PR2 binding EC50. In a few lines: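 Scintillation proximity read-out after 2 h room-temperature incubation of compound, [3H]S1P and S1PR2-overexpressing cell membranes on WGA-coated beads. Buffer: 20 mM Tris pH 7.5, 100 mM NaCl, 10 mM MgCl2, 1 mM Na3VO4, 0.4% fatty-acid-free BSA; plates counted immediately after centrifugation.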

Test [6] has as its target T3, human GPCR sphingosine 1-phosphate receptor 5 (Homo sapiens, UniProt Q9H228).
T3 construct: host or cells: CHO
Nature of the test: S1PR5 selectivity Ca2+ flux assay (antagonist readout). Type of test: cell-based. To be noted: CHO cells overexpressing human S1PR5 and Gq, agonist at EC80 (20 nM), read-out: S1P5 EC50 (nM), S1P5 antagonist EC50. In short, it runs like this:
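Antagonist readout: after 15 min compound preincubation at 37° C, human S1PR5/Gq CHO cells loaded with Fluo 8 dye received an EC80 challenge of S1PR5-specific agonist, and fluorescence was recorded for 3 min. Maximal-over-background ratios, normalized as % inhibition, gave IC50 by logistic fit.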

Test [7] concerns the target T4, human GPCR sphingosine 1-phosphate receptor 2 (Homo sapiens, UniProt O95136).
T4 construct: host or cells: CHO
Nature of the test: S1PR2 antagonist Ca2+ flux assay. Type of test: cell-based. To be noted: antagonist mode, CHO-S1PR2 cells, S1P at EC80, Ca2+ fluorescence; read-out: S1P2 EC50 (nM), S1P2 antagonist EC50. In short, it runs like this: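 Antagonist mode: 15 min after compound addition, S1P (EC80) stimulates Fluo8-loaded, 1 h-starved CHO-S1PR2 cells, Ca2+ read over 3 min; a prior 3-min read checks compound agonism. EC50 from peak/baseline fluorescence ratio, normalised versus vehicle and S1P EC50 (antagonist) or EC100 (agonist).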
In general terms: Calcium flux is commonly read through the fluorescence of an indicator in the cells.

Data on 2 compounds can be found in patent US20210315893A1 (Galapagos NV, priority 2017, published 2021).

For orientation: EC50 means the midpoint of the concentration-response curve.

Molecules are shown by their SMILES.

T1 sequence (P21453 whole entry): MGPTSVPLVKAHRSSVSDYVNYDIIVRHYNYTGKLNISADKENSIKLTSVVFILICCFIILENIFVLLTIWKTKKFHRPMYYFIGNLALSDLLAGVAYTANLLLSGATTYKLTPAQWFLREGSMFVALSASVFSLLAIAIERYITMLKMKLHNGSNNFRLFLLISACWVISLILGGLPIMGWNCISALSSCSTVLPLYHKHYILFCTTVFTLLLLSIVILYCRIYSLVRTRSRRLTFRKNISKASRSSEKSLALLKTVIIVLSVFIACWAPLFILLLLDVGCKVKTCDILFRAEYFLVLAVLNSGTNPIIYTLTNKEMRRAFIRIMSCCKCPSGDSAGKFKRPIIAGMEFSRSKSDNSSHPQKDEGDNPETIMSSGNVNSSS
T3 sequence (Q9H228 whole entry): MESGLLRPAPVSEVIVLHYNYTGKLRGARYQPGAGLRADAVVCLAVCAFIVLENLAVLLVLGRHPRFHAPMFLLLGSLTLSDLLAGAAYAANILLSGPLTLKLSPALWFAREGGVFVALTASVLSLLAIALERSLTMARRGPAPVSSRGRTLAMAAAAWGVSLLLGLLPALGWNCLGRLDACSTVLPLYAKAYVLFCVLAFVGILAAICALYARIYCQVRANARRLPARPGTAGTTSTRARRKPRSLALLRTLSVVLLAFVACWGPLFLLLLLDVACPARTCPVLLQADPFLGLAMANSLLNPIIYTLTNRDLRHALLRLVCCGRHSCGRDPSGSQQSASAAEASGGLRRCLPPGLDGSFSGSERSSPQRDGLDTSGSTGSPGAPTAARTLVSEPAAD
T4 sequence (O95136 whole entry): as the sequence (O95136 whole entry) above

Consider `O=C(O)Cn1nc(Cc2nc3cc(Cl)c(OCC4CC4)cc3[nH]2)c2ccccc2c1=O` [Compound 115, 2-[4-[[5-chloro-6-(cyclopropylmethoxy)-1H-benzimidazol-2-yl]methyl]-1-oxo-phthalazin-2-yl]acetic acid], for which the values for the EC50 (in test [1]; with HFL-1 cells [3]; in the test with HFL-1 cells [4]) were 3620 nM, 5.73 nM and 51.8 nM, respectively. The Ashcroft score difference entry in test [2] and in test [5] was “statistically significant Ashcroft score difference” each time.

For the compound `N#Cc1cc2[nH]c(Cc3nn(C4CNC4)c(=O)c4ccccc34)nc2cc1OCC(F)F` [Compound 68, 2-[[3-(azetidin-3-yl)-4-oxo-phthalazin-1-yl]methyl]-6-(2,2-difluoroethoxy)-3H-benzimidazole-5-carbonitrile], the half-maximal effective concentration (EC50) is not below 19800 nM in test [1]; 275 nM on S1PR2; 76.7 nM in the test on HFL-1 cells [3]; 19800 nM in test [6]; 547 nM in test [7]; 123 nM in the test on HFL-1 cells [4].
